Reference: PubChem BioAssay (NCI)
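The concentration for 50% growth inhibition is given as GI50. TGI: concentration producing complete growth inhibition.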

Experiments:
Assay in all cases: DTP human tumour cell line panel, 384-well format
[1] = system: MALME-3M melanoma
[2] = system: OVCAR-5 ovarian
[3] = system: M14 melanoma
[4] = system: RPMI-8226 leukemia
[5] = system: MDA-MB-468 breast
[6] = system: UACC-257 melanoma
[7] = system: CCRF-CEM leukemia
[8] = system: HT29 colon
[9] = system: NCI/ADR-RES ovarian
[10] = system: CAKI-1 renal
[11] = system: DU-145 prostate
[12] = system: SF-539 CNS
[13] = system: UACC-62 melanoma
[14] = system: OVCAR-3 ovarian
[15] = system: NCI-H322M lung
[16] = system: NCI-H522 lung
[17] = system: SNB-75 CNS
[18] = system: UO-31 renal
[19] = system: SK-MEL-28 melanoma
[20] = system: MDA-MB-435 melanoma
[21] = system: MCF7 breast
[22] = system: HCT-15 colon
[23] = system: SW-620 colon
[24] = system: NCI-H23 lung
[25] = system: MDA-MB-231 breast
[26] = system: KM12 colon
[27] = system: SN12C renal
[28] = system: OVCAR-4 ovarian

## CC1(C)CN(c2cc(C(F)(F)F)cc3cncn23)CCC12NC(=O)NC2=O (stereo unspecified)
[1]
  GI50: 28.1 µM
  TGI: 88.7 µM
[2]
  GI50: 39.4 µM
  TGI: > 100 µM
[3]
  GI50: 48.1 µM
  TGI: > 100 µM
[4]
  GI50: 15.3 µM
  TGI: 45.8 µM
[5]
  GI50: 12.5 µM
  TGI: 35.2 µM
[6]
  GI50: 61.3 µM
  TGI: > 100 µM
[7]
  GI50: 12 µM
  TGI: 26.7 µM
[8]
  GI50: 46 µM
  TGI: > 100 µM
[9]
  GI50: > 100 µM
  TGI: > 100 µM
[10]
  GI50: 30.6 µM
  TGI: > 100 µM
[11]
  GI50: 40 µM
  TGI: > 100 µM
[12]
  GI50: 91.7 µM
  TGI: > 100 µM
[13]
  GI50: 19.2 µM
  TGI: 63.7 µM
[14]
  GI50: 28.4 µM
  TGI: > 100 µM
[15]
  GI50: 57.8 µM
  TGI: > 100 µM
[16]
  GI50: 54 µM
  TGI: > 100 µM
[17]
  GI50: 42.4 µM
  TGI: > 100 µM
[18]
  GI50: 56.8 µM
  TGI: > 100 µM
[19]
  GI50: 47.8 µM
  TGI: > 100 µM
[20]
  GI50: 62.2 µM
  TGI: > 100 µM
[21]
  GI50: 26 µM
  TGI: 99.6 µM
[22]
  GI50: 40.6 µM
  TGI: > 100 µM
[23]
  GI50: > 100 µM
  TGI: > 100 µM
[24]
  GI50: 30.7 µM
  TGI: > 100 µM
[25]
  GI50: 32.2 µM
  TGI: > 100 µM
[26]
  GI50: 36 µM
  TGI: > 100 µM
[27]
  GI50: 40.4 µM
  TGI: > 100 µM
[28]
  GI50: 18.8 µM
  TGI: 82.6 µM
